Test results: PMC1887774 (The Journal of General Physiology, 1998)
“Also recorded” adds a separate entry of the source.

Columns and labels:
[1] = molecular target: T1, rat brain type IIA sodium channels (F1489Q α subunit + wild-type β1) (Rattus norvegicus, UniProt P04775, F1489Q/N209D); assay type: biochemical, rat (expressed in Xenopus laevis oocytes)
sodium channels = details: ref Eaholtz et al., 1994, cited from earlier work
[2] = molecular target: T1, rat brain type IIA sodium channels (F1489Q α subunit + wild-type β1); assay type: biochemical, rat (expressed in Xenopus laevis oocytes); remark: listed apart in the source
[3] = tested on: cardiac sodium channel with mutations in M1651 and M1652; details: whole-cell recording, ref Tang et al. (1996), cited from earlier work

T1 sequence (P04775 whole entry N209D/F1489Q): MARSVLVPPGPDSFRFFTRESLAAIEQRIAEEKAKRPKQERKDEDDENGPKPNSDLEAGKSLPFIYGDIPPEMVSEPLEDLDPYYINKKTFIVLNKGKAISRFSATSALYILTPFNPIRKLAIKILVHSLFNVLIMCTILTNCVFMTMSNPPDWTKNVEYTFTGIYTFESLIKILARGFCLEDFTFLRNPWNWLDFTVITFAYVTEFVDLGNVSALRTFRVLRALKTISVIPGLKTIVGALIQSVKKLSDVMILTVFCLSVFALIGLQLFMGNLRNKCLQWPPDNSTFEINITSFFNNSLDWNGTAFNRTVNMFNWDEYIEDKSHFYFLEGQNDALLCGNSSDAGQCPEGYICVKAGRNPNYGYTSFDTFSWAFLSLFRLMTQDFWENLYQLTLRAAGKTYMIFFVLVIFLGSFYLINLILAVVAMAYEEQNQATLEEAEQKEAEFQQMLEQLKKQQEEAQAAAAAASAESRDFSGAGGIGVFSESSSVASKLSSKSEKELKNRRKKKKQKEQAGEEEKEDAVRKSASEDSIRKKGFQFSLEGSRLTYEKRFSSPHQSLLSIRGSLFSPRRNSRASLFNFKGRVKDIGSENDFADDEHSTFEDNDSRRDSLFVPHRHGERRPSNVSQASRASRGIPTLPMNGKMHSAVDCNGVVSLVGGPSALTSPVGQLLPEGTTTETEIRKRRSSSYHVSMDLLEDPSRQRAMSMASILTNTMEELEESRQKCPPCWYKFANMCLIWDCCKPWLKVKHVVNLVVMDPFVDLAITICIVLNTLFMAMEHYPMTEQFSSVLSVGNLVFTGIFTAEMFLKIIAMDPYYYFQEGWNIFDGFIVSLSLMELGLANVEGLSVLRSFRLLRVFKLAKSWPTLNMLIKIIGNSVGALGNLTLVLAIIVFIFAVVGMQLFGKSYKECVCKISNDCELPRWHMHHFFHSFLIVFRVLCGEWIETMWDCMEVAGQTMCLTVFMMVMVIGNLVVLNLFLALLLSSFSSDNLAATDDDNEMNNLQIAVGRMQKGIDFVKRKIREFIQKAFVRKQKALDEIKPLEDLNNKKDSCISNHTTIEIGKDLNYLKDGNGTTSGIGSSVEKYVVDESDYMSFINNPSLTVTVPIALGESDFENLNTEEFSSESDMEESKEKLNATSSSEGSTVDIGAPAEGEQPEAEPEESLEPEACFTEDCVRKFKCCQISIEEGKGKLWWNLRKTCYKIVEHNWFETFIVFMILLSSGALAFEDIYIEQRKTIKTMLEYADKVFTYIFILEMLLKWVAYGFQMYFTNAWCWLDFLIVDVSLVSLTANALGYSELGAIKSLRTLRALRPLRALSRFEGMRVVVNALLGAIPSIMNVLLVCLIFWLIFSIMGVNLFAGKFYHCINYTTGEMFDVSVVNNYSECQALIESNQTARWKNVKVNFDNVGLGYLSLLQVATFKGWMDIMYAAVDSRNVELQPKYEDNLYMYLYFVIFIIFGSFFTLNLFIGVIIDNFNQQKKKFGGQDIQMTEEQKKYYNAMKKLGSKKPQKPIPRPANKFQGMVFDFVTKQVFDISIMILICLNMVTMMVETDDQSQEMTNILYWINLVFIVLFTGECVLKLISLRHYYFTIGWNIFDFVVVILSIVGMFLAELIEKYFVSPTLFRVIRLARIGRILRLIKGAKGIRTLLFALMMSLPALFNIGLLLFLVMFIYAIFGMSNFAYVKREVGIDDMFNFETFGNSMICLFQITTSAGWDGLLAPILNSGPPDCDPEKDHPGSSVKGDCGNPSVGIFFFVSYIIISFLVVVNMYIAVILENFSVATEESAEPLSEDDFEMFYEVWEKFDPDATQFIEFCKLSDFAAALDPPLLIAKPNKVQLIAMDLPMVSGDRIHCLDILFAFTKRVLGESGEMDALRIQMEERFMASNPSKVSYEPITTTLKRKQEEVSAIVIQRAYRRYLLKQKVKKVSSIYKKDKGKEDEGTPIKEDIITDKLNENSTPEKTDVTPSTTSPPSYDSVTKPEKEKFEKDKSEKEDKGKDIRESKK
T1 sequence (Q00954 19-218 partner): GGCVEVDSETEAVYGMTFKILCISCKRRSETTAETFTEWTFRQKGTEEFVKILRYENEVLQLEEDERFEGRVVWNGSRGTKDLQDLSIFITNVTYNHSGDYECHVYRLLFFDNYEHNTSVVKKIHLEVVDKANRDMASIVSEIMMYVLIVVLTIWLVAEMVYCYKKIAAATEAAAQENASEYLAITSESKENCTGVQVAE

CC[C@H](C)[C@H](NC(=O)[C@H](CCCCN)NC(C)=O)C(=O)N[C@@H](Cc1ccccc1)C(=O)N[C@@H](CCSC)C(=O)N[C@@H](CCCCN)C(N)=O [KIFMK, acetyl-KIFMK-NH2]
block of the steady state sodium current ([1]; 100 μM KIFMK, voltage step from −100 to 0 mV): > 70%
koff ([1]; read-out: unblocking rate k u (= k off)): 342 ± 21 s⁻¹
types of block (sodium channels; cytoplasmic application): a rapid block, which occurs in milliseconds and resembles inactivation in kinetics and voltage dependence, and a cumulative, use-dependent block, which occurs during repetitive high voltage pulses
slow block (sodium channels): slow block that occurs at voltages more depolarized than 0 mV
state preference of block (sodium channels): appears to preferentially block open channels
shift of the I-V relationship ([2]; 100 μM KIFMK compared with no peptide control, test voltages −80 to 110 mV): negative shift of the I-V relationship
voltage dependence of unblocking (off) rates ([2]; 100 μM KIFMK, −30 to 30 mV): voltage independent; also recorded: not affected by voltage; also recorded: no voltage dependence
mean unblocking rate k u over the voltage range ([2]; 100 μM KIFMK, −30 to 30 mV, mean ± SEM, n = 4): 336 ± 14 s⁻¹
voltage constant of blocking rate fit, exp^(V/43 mV) ([2]; 100 μM KIFMK, e-fold factor of k b (Fig. 3 B) and k on (Scheme 1)): 43 mV
extent of the electric field traversed by the lysine charges ([2]; if both charges enter the electric field to an equivalent extent): 30%
K d from ratio of the on and off rates ([3]; outward sodium currents): ~30 µM
dependence of the on rate on peptide concentration [3]: deviated significantly from linearity
voltage dependence of block rate [3]: no voltage dependence of block rate was detected
